Assay results as given in article PMC9861858, “Stereoselective Synthesis and Antiproliferative Activities of Tetrafunctional Diterpene Steviol Derivatives” (International Journal of Molecular Sciences, 2023).
Values after ≈ are worked out from the molar mass of the structure shown. “Also recorded” adds a separate entry of the source.

Columns and labels:
[1] = system: NIH/3T3 fibroblasts; assay: MTT assay on fibroblasts (selectivity); type: cell-based, murine; conditions: Mus musculus, 72 h, values <20% considered negligible, read-out: Growth inhibition (%) ± SEM, NIH/3T3; for inhibition at 10 µM: NIH3T3, 10 μM; for inhibition at 30 µM: NIH3T3, 30 μM
Description: (§1) The in vitro antiproliferative activities of the synthesised aminotriols 5–18 against a panel of different human cancer cell lines of gynecological origin, including cervical (SiHA and HeLa), breast (MCF7 and MDA-MB-231), ovary (A2780) cancers and NIH/3T3 healthy fibroblasts, were assayed by the MTT method. Cisplatin, a clinically applied anticancer agent was used as a reference compound, and the results are summarised in Figure 3 and Table S1 in the Supplementary Materials.
(§2) The growth-inhibitory effects of the presented terpenes were determined by a standard MTT [3-(4,5-dimethylthiazol2-yl)-2,5-diphenyltetrazolium bromide] assay against […] human cancer cell lines (cervical cancer HeLa and SiHa cell lines, breast cancer MCF-7 and MDA-MB-231 and ovarian cancer A2780). Murine embryonal fibroblast cells (NIH/3T3) were used to determine selectivity. All cell lines were purchased from the European Collection of Cell Cultures (Salisbury, UK). The cells were cultivated in Eagle’s minimal essential medium supplemented with 10% fetal bovine serum, 1% non-essential amino acids, and 1% Antibiotic-Antimycotic complex (penicillin, streptomycin, amphotericin B) at 37 °C in a humidified atmosphere containing 5% CO2. All media and supplements were purchased from Lonza Group Ltd. (Basel, Switzerland). Cancer cells were seeded into 96-well plates (5000 cells/well) after an overnight incubation, and the test compounds were added at two different concentrations (10 μM and 30 μM) and incubated for another 72 h under cell-culturing conditions. Finally, 20 μL of a 5 mg/mL MTT solution was added to each well, and the contents were incubated for a further 4 h. The medium was removed, and the precipitated formazan crystals were dissolved in DMSO by shaking at 37 °C for 60 min. The absorbance was measured at 545 nm by using a microplate reader (SPECTROStar Nano, BMG Labtech, Offenburg, Germany). Clinically utilised anticancer agent cisplatin (Ebewe GmbH, Unterach, Austria) was included as a reference molecule. Calculations were performed using the GraphPad Prism 9 software (GraphPad Software Inc., San Diego, CA, USA).

[2] = system: A2780 cells; assay: MTT antiproliferative assay, A2780; type: cell-based, human; conditions: for inhibition at 10 µM / inhibition at 30 µM: Homo sapiens, 72 h, values <20% considered negligible, read-out: Growth inhibition (%) ± SEM, A2780; for inhibition at 10 µM: A2780, 10 μM; for inhibition at 30 µM: A2780, 30 μM; for Antiproliferative effect on A2780, in words: 10 and 30 μM
Description: as §1, §2

[3] = system: HeLa cells; assay: MTT antiproliferative assay, HeLa; type: cell-based, human; conditions: Homo sapiens, HeLa, 72 h, values <20% considered negligible, read-out: Growth inhibition (%) ± SEM, HeLa
Description: as §1, §2

[4] = Kinetic aqueous solubility; type: physicochemical; conditions: phosphate buffered saline with 5% DMSO, aqueous with cosolvent or surfactant or cyclodextrin, kinetic from dmso stock; after 2 h, at 37 °C in PBS, pH 7.4, 5% DMSO; target concentration 500 μM; mean ± S.E.M, n = 3
Description: (§3) Filtrates and calibration solutions (5–500 μ M) of the kinetic solubility study and starting donor and acceptor solutions of the PAMPA-GI study were investigated by HPLC-DAD-MS. LC-MS analysis was performed using a Waters 2795 HPLC with a Waters 2487 DAD detector coupled with a Micromass Quattro Ultima TMPt quadrupol mass spectrometer equipped with an ESI source. Measurements were performed on a Waters XSelect C18 (150 × 4.6 mm; 3.5 μm) column with a […] eluent flow rate and the temperature set at 40 °C. The composition of eluent A was MilliQ water with 0.1% formic acid, and that of eluent B was an acetonitrile and MilliQ water mixture (95:5, v/v), also with 0.1% formic acid. The following linear gradient program was used: 0–6 min, 10–100% B; this was held for 3 min, then from 9.01 min on, back to the starting composition of 10% B–90% A. The injection volume was 10 μL for each sample. Chromatographic profiles were registered at dual wavelength, 220 and 240 nm. The mass spectrometer was used in negative ion mode for samples 2, 3 and 4b, and in positive ion mode for other samples. The operating parameters of the MS were: Mass range of m/z 150–700. Nitrogen gas flow rate was 350 L/h, temperature of 350 °C and pressure of 6 bar. The quadrupol temperature was 120 °C, and the capillary voltage was 2.5 kV. Fragmentor’s voltage of 60 V.
(§4) Intestinal (GI) permeability was determined by using an intestinal-specific parallel artificial membrane permeability assay (PAMPA-GI [36]]). […] All solutions were filtered by MultiScreen HTS Vacuum Manifold (Merck Ltd., Budapest, Hungary) after the incubation period. The target concentration was 500 μM for every sample investigated. The intestinal-specific effective permeability of the samples was determined by PAMPA-GI. To prepare starting solutions for a 96-well donor plate, 15 μLs of the 10 mM DMSO stock solution of investigation compounds and 285 μL pH 6.5 phosphate buffer solution were mixed. These solutions were left in a shaking incubator (300 rpm) at 25 °C for 1 h. Meanwhile, a 96-well acceptor plate was filled with 300 μL of pH 7.4 PBS buffer solution containing 5% DMSO. The intestinal-specific artificial membrane was prepared the following way: the hydrophobic filter material of the donor plate was coated with a mixture of phosphatidylcholine/cholesterol = 2:1 (5 μL, 4 % (w/v) in dodecane). After that, all donor wells were filled with 150 μL of the starting donor solutions, and they were carefully placed on the acceptor plate and incubated at 37 °C for 4 h. After the end of the incubation period the donor and acceptor plates were separated carefully. A total of 150 μL of the donor, acceptor and the starting donor solutions were sampled and analysed with HPLC-DAD-MS. The effective permeability and membrane retention of drugs were calculated using the following equations: Pe=−2.303/A·(t−τss)·1/1+rv·lg[−rv+(1+rv/1−MR)·]CD(t)/CD(0) MR=1−CD(t)/CD(0)−VA·CA(t)/VD·CD(0) where Pe is the effective permeability coefficient (cm/s), A is the filter area (0.3 cm^2), VD and VA are the volumes in the donor (0.15 cm^3) and acceptor phase (0.3 cm^3), t is the incubation time (s), τSS is the time to reach steady-state (s), CD(t) is the concentration of the compound in the donor phase at time point t (mol/cm^3), CD(0) is the concentration of the compound in the donor phase at time point zero (mol/cm^3), rv is the aqueous compartment volume ratio (VD/VA), MR is the membrane retention factor.

[5] = system: MDA-MB-231 cells; assay: MTT antiproliferative assay, MDA-MB-231; type: cell-based, human; conditions: for inhibition at 10 µM / inhibition at 30 µM: Homo sapiens, 72 h, values <20% considered negligible, read-out: Growth inhibition (%) ± SEM, MDA-MB-231; for inhibition at 10 µM: MDA-MB-231, 10 μM; for inhibition at 30 µM: MDA-MB-231, 30 μM; for Antiproliferative effect / selectivity on MDA-MB-231, in words: 10 and 30 μM
Description: as §1, §2

[6] = Intestinal-specific parallel artificial membrane permeability assay (PAMPA-GI); type: in vitro ADME; conditions: gradient pH system (pH donor 6.5 → pH acceptor 7.4) after 4 h, at 37 °C, mean ± S.E.M, n = 3; for Papp at 4 h, 500 µM: PAMPA, read-out: PAMPA-GI Pe
Description: as §3, §4

[7] = system: SiHa cells; assay: MTT antiproliferative assay, SiHa; type: cell-based, human; conditions: Homo sapiens, SiHa, 72 h, values <20% considered negligible, read-out: Growth inhibition (%) ± SEM, SiHa
Description: as §1, §2

[8] = system: MCF-7 cells; assay: MTT antiproliferative assay, MCF-7; type: cell-based, human; conditions: for inhibition at 10 µM / inhibition at 30 µM: Homo sapiens, 72 h, values <20% considered negligible, read-out: Growth inhibition (%) ± SEM, MCF-7; for inhibition at 10 µM: MCF7, 10 μM; for inhibition at 30 µM: MCF7, 30 μM; for Antiproliferative effect / selectivity on MCF-7, in words: 10 and 30 μM
Description: as §1, §2

SMILES | inhibition at 10 µM [1] [%] | inhibition at 30 µM [1] [%] | melting point [°C] | inhibition at 10 µM [2] [%] | inhibition at 30 µM [2] [%] | inhibition at 10 µM [3] [%] | inhibition at 30 µM [3] [%] | solubility kinetic at 2 h [4] [µM] | inhibition at 10 µM [5] [%] | inhibition at 30 µM [5] [%] | PAMPA-GI MR (membrane retention) [6] [%] | inhibition at 10 µM [7] [%] | inhibition at 30 µM [7] [%] | inhibition at 10 µM [8] [%] | inhibition at 30 µM [8] [%] | Papp at 4 h, 500 µM [6] [×10⁻⁶ cm/s] | Antiproliferative effect / selectivity on MCF-7, in words [8] | Antiproliferative effect on A2780, in words [2] | Antiproliferative effect / selectivity on MDA-MB-231, in words [5]
COC(=O)[C@]1(C)CCC[C@@]2(C)C3CC[C@]4(O)C[C@@]3(CCC21)[C@@H](O)[C@]4(O)CN[C@H](C)c1ccc2ccccc2c1 (stereo partly drawn) [Compound 12, (4R,6aR,7R,8R,9S,11bS)-Methyl 7,8,9-Trihydroxy-4,11b-dimethyl-8-((((R)-1-(naphthalen-2-yl)ethyl)amino)methyl)tetradecahydro-6a,9-methanocyclohepta[a]naphthalene-4-carboxylate] | 90.07 ± 0.51 | 94.67 ± 0.24 | 93 to 95 | 96.68 ± 0.36 | 96.38 ± 0.3 | 96.82 ± 0.56 | 96.94 ± 0.49 | 13.3 ± 0.9 (≈ 7.13 µg/mL) | 95.84 ± 0.29 | 95.62 ± 0.34 | 92.6 ± 2.1 | 96.08 ± 0.6 | 95.49 ± 0.86 | 96.35 ± 0.36 | 95.87 ± 0.38 | – | – | – | –
COC(=O)[C@]1(C)CCC[C@@]2(C)C3CC[C@]4(O)C[C@@]3(CCC21)[C@@H](O)[C@]4(O)CNCc1ccc(OC)cc1 (stereo partly drawn) [Compound 10, (4R,6aR,7R,8R,9S,11bS)-Methyl 7,8,9-Trihydroxy-8-(((4-methoxybenzyl)amino)methyl)-4,11b-dimethyltetradecahydro-6a,9-methanocyclohepta[a]naphthalene-4-carboxylate] | < 20 | 90.9 ± 1.17 | 161 to 163 | < 20 | 96.79 ± 0.25 | 27.8 ± 1.05 | 96.06 ± 0.93 | 143 ± 26.8 (≈ 71.7 µg/mL) | 37.8 ± 2.27 | 93.42 ± 0.56 | 6.1 ± 1.1 | 24.1 ± 1.39 | 94.64 ± 0.5 | 74.3 ± 2.62 | 95.66 ± 0.76 | 0.37 ± 0.11 | higher selectivity; also recorded: performed best | – | –
COC(=O)[C@]1(C)CCC[C@@]2(C)C3CC[C@]4(O)C[C@@]3(CCC21)[C@@H](O)[C@]4(O)CN[C@H](C)c1ccccc1 (stereo partly drawn) [Compound 7, (4R,6aR,7R,8R,9S,11bS)-Methyl 7,8,9-Trihydroxy-4,11b-dimethyl-8-((((R)-1-phenylethyl)amino)methyl)tetradecahydro-6a,9-methanocyclohepta[a]naphthalene-4-carboxylate] | 35.8 ± 4.12 | 100.5 ± 0.37 | 84 to 87 | 52.9 ± 1.83 | 98.14 ± 0.36 | 33.7 ± 0.93 | 97.76 ± 0.25 | 182 ± 3.2 (≈ 88.2 µg/mL) | 88.05 ± 0.59 | 94.56 ± 0.63 | 28.8 ± 5.8 | < 20 | 94.56 ± 0.54 | 62.8 ± 1.05 | 97.69 ± 0.38 | 0.64 ± 0.07 | slightly weaker action | slightly weaker action | noteworthy selectivity
COC(=O)[C@]1(C)CCC[C@@]2(C)C3CC[C@]4(O)C[C@@]3(CCC21)[C@@H](O)[C@]4(O)CN[C@@H](C)c1ccccc1 (stereo partly drawn) [Compound 8, (4R,6aR,7R,8R,9S,11bS)-Methyl 7,8,9-Trihydroxy-4,11b-dimethyl-8-((((S)-1-phenylethyl)amino)methyl)tetradecahydro-6a,9-methanocyclohepta[a]naphthalene-4-carboxylate] | 58.8 ± 1.41 | 103.2 ± 0.33 | 157 to 161 | 59.9 ± 3.03 | 97.45 ± 0.36 | < 20 | 96.19 ± 0.25 | 131 ± 2.2 (≈ 63.8 µg/mL) | 84.3 ± 2.78 | 95.62 ± 0.92 | 42.6 ± 3.9 | < 20 | 95.09 ± 0.69 | 74 ± 2.14 | 96.04 ± 0.32 | 0.58 ± 0.01 | slightly weaker action | slightly weaker action | noteworthy selectivity
